Results published in patent US20230233569A1 (Revolution Medicines, Inc., priority 2020, published 2023).

How the values were obtained:
[1] = test system: AsPC-1 (K-Ras G12D); assay: Potency assay: pERK; assay type: cell-based; conditions: Homo sapiens, ASPC1, read-out: pERK EC50
[2] = test system: AsPC-1 (K-Ras G12D); assay: CellTiter-Glo cell viability assay; assay type: cell-based; conditions: Homo sapiens, ASPC1, 120 h, read-out: AsPC-1 Cell Viability assay data IC50, K-Ras G12D, 5-day treatment
Protocol: Determination of Cell Viability in RAS Mutant Cancer Cell Lines
Protocol: CellTiter-Glo® Cell Viability Assay
Note—The following protocol describes a procedure for monitoring cell viability of K-Ras mutant cancer cell lines in response to a compound of the invention. Other RAS isoforms may be employed, though the number of cells to be seeded will vary based on cell line used.
Test compounds (132.5 nL) were directly dispensed into the assay plates containing cells. […] On day 5, assay plates and their contents were equilibrated to room temperature for approximately 30 minutes. […] Luminescence was measured using the PerkinElmer Enspire. Data were normalized by the following: (Sample signal/Avg. DMSO)*100. The data were fit using a four-parameter logistic fit.

[3] = target: KRAS G12D (Homo sapiens, UniProt P01116+P62937, G12D); assay: Ras-Raf disruption / FRET / MOA assay (BRAF RBD); assay type: biochemical; conditions: KRAS G12D FRET data IC50, Ras-Raf disruption, with Cyclophilin A
Chain of KRAS G12D (P01116 1-169 isoform P01116-2 G12D limits assumed): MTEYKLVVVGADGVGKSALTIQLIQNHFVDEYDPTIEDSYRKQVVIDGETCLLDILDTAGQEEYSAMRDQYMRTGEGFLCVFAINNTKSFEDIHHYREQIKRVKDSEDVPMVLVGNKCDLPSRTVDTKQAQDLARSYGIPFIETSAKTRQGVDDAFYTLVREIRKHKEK
Chain of KRAS G12D (P62937 whole entry): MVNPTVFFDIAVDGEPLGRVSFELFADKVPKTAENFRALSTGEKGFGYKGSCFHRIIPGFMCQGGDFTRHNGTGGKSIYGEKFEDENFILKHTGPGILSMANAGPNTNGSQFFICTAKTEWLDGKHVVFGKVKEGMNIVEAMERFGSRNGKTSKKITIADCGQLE
In short: (§1)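 TR-FRET in 25 mM HEPES pH 7.3, 100 mM NaCl, 5 mM MgCl2, 0.1% BSA, 0.002% Tween20 with 25 μM Cyclophilin A, 12.5 nM His6-Ras-GMPPNP, 50 nM GST-BRAF RBD; compound 10-point 3-fold series from 30 μM. After 3 h at 25 °C, Eu anti-His/APC anti-GST added for 1.5 h; IC50 from ratio decrease versus DMSO.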

[4] = target: KRAS G12S (Homo sapiens, UniProt P01116+P62937, G12S); assay: Ras-Raf disruption / FRET / MOA assay (BRAF RBD); assay type: biochemical; conditions: KRAS G12S FRET data IC50, Ras-Raf disruption, with Cyclophilin A
Chain of KRAS G12S (P01116 1-169 isoform P01116-2 G12S limits assumed): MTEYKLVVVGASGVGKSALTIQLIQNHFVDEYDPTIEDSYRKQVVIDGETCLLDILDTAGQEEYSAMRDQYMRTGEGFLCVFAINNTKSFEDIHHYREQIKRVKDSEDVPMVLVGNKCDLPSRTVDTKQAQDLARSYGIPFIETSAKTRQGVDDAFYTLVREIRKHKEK
Chain of KRAS G12S (P62937 whole entry): as the sequence (P62937 whole entry) above
In short: as §1

[5] = target: KRAS G12V (Homo sapiens, UniProt P01116+P62937, G12V); assay: Ras-Raf disruption / FRET / MOA assay (BRAF RBD); assay type: biochemical; conditions: KRAS G12V FRET data IC50, Ras-Raf disruption, with Cyclophilin A
Chain of KRAS G12V (P01116 1-169 isoform P01116-2 G12V limits assumed): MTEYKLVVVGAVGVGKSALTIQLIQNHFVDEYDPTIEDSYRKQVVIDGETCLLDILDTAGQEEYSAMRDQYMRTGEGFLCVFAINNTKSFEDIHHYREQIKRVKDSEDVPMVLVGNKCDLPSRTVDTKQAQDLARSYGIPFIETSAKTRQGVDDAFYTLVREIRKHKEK
Chain of KRAS G12V (P62937 whole entry): as the sequence (P62937 whole entry) above
In short: as §1

[6] = target: KRAS G13C (Homo sapiens, UniProt P01116+P62937, G13C); assay: Ras-Raf disruption / FRET / MOA assay (BRAF RBD); assay type: biochemical; conditions: KRAS G13C FRET data IC50, Ras-Raf disruption, with Cyclophilin A
Chain of KRAS G13C (P01116 1-169 isoform P01116-2 G13C limits assumed): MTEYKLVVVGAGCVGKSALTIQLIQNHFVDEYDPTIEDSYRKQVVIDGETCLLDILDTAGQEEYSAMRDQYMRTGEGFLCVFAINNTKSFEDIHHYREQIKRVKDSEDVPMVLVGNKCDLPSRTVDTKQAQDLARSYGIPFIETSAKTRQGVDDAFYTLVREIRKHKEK
Chain of KRAS G13C (P62937 whole entry): as the sequence (P62937 whole entry) above
In short: as §1

[7] = target: KRAS G13D (Homo sapiens, UniProt P01116+P62937, G13D); assay: Ras-Raf disruption / FRET / MOA assay (BRAF RBD); assay type: biochemical; conditions: KRAS G13D FRET data IC50, Ras-Raf disruption, with Cyclophilin A
Chain of KRAS G13D (P01116 1-169 isoform P01116-2 G13D limits assumed): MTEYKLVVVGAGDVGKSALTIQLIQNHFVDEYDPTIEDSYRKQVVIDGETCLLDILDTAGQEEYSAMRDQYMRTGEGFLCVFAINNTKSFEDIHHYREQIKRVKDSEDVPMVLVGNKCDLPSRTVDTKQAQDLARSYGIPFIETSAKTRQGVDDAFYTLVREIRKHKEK
Chain of KRAS G13D (P62937 whole entry): as the sequence (P62937 whole entry) above
In short: as §1

[8] = target: KRAS Q61H (Homo sapiens, UniProt P01116+P62937, Q61H); assay: Ras-Raf disruption / FRET / MOA assay (BRAF RBD); assay type: biochemical
Chain of KRAS Q61H (P01116 1-169 isoform P01116-2 Q61H limits assumed): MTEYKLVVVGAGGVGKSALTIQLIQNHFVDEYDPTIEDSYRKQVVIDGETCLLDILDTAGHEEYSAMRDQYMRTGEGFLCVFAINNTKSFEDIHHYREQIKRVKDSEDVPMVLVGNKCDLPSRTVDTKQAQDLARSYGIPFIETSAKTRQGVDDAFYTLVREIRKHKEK
Chain of KRAS Q61H (P62937 whole entry): as the sequence (P62937 whole entry) above
In short: as §1

[9] = target: KRAS WT (Homo sapiens, UniProt P01116+P62937); assay: Ras-Raf disruption / FRET / MOA assay (BRAF RBD); assay type: biochemical; conditions: KRAS WT FRET data IC50, Ras-Raf disruption, with Cyclophilin A
Chain of KRAS WT (P01116 1-169 isoform P01116-2 limits assumed): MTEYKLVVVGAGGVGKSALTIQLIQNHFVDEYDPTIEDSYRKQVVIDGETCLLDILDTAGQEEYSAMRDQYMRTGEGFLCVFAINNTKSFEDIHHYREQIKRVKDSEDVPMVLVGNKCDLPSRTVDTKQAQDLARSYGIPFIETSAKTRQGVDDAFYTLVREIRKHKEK
Chain of KRAS WT (P62937 whole entry): as the sequence (P62937 whole entry) above
In short: as §1

[10] = target: NRAS G12C (Homo sapiens, UniProt P01111+P62937, G12C); assay: Ras-Raf disruption / FRET / MOA assay (BRAF RBD); assay type: biochemical; conditions: NRAS G12C FRET data IC50, NRAS G12C
Chain of NRAS G12C (P01111 whole entry G12C): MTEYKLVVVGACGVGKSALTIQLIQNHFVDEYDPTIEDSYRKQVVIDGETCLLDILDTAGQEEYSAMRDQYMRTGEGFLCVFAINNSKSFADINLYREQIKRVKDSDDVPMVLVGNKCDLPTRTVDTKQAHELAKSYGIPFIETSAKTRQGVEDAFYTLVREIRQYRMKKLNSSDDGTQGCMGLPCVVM
Chain of NRAS G12C (P62937 whole entry): as the sequence (P62937 whole entry) above
In short: as §1

[11] = target: NRAS Q61K (Homo sapiens, UniProt P01111+P62937, Q61K); assay: Ras-Raf disruption / FRET / MOA assay (BRAF RBD); assay type: biochemical
Chain of NRAS Q61K (P01111 whole entry Q61K): as the sequence (P01111 whole entry G12C) above, with C12G, Q61K counted along it
Chain of NRAS Q61K (P62937 whole entry): as the sequence (P62937 whole entry) above
In short: as §1

[12] = target: NRAS Q61R (Homo sapiens, UniProt P01111+P62937, Q61R); assay: Ras-Raf disruption / FRET / MOA assay (BRAF RBD); assay type: biochemical
Chain of NRAS Q61R (P01111 whole entry Q61R): as the sequence (P01111 whole entry G12C) above, with C12G, Q61R counted along it
Chain of NRAS Q61R (P62937 whole entry): as the sequence (P62937 whole entry) above
In short: as §1

[13] = target: NRAS WT (Homo sapiens, UniProt P01111+P62937); assay: Ras-Raf disruption / FRET / MOA assay (BRAF RBD); assay type: biochemical
Chain of NRAS WT (P01111 whole entry): as the sequence (P01111 whole entry G12C) above, with C12G counted along it
Chain of NRAS WT (P62937 whole entry): as the sequence (P62937 whole entry) above
In short: as §1

[14] = target: KRAS G12C (Homo sapiens, UniProt P01116+P62937, G12C); assay: Ras-Raf disruption / FRET / MOA assay (BRAF RBD); assay type: biochemical; conditions: KRAS G12C FRET data IC50, Ras-Raf disruption, with Cyclophilin A
Chain of KRAS G12C (P01116 1-169 isoform P01116-2 G12C limits assumed): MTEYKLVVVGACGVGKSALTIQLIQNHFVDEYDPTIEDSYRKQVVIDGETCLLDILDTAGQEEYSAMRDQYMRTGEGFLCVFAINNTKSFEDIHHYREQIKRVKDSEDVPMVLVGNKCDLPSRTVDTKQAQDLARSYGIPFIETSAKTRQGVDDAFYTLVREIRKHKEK
Chain of KRAS G12C (P62937 whole entry): as the sequence (P62937 whole entry) above
In short: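 His6-K-Ras G12C-GMPPNP (12.5 nM), GST-BRAF RBD (50 nM) and tagless Cyclophilin A (25 μM) incubated 3 h at 25 °C with compound (10-point 3-fold series from 30 μM), pH 7.3 HEPES buffer. Anti-His Eu/anti-GST APC added for 1.5 h; decreased TR-FRET ratio vs DMSO gives IC50.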

SMILES	EC50 [1] [nM]	IC50 [2] [nM]	IC50 [3] [nM]	IC50 [4] [nM]	IC50 [5] [nM]	IC50 [6] [nM]	IC50 [7] [nM]	IC50 [8] [nM]	IC50 [9] [nM]	IC50 [10] [nM]	IC50 [11] [nM]	IC50 [12] [nM]	IC50 [13] [nM]	IC50 [14] [nM]
CCn1c(-c2cccnc2[C@H](C)OC)c2c3cc(ccc31)-c1cc(O)cc(c1)C[C@H](NC(=O)[C@H](C(C)C)N(C)C(=O)CN(C)C(=O)[C@H]1CN1CCCN1CCCC1=O)C(=O)N1CCC[C@H](N1)C(=O)OCC(C)(C)C2 (stereo partly drawn) [Example 268, (2R)—N-(2-(((2S)-1-(((6^3S,4S)-1^1-ethyl-2^5-hydroxy-1^2-(2-((S)-1-methoxyethyl)pyridin-3-yl)-10,10-dimethyl-5,7-dioxo-6^1,6^2,6^3,6^4,6^5,6^6-hexahydro-1^1H-8-oxa-1(5,3)-indola-6(1,3)-pyridazina-2(1,3)-benzenacycloundecaphane-4-yl)amino)-3-methyl-1-oxobutan-2-yl)(methyl)amino)-2-oxoethyl)-N-methyl-1-(3-(2-oxopyrrolidin-1-yl)propyl)aziridine-2-carboxamide]	< 5000	1000 to 10000	100 to 1000	10 to 100	10 to 100	10 to 100	100 to 1000	10 to 100	10 to 100	< 10	100 to 1000	100 to 1000	10 to 100	< 10
CCn1c(-c2cccnc2[C@H](C)OC)c2c3cc(ccc31)-c1cc(O)cc(c1)C[C@H](NC(=O)[C@H](C(C)C)N(C)C(=O)CN(C)C(=O)[C@@H]1CN1CCCN1CCCC1=O)C(=O)N1CCC[C@H](N1)C(=O)OCC(C)(C)C2 (stereo partly shown) [Example 269]	< 5000	1000 to 10000	10 to 100	10 to 100	10 to 100	10 to 100	100 to 1000	10 to 100	10 to 100	< 10	100 to 1000	100 to 1000	10 to 100	< 10
CCn1c(-c2cccnc2[C@H](C)OC)c2c3cc(ccc31)-c1cc(O)cc(c1)C[C@H](NC(=O)[C@H](C(C)C)N(C)C(=O)CN(C)C(=O)[C@@H]1CN1CC(=O)N(C)C)C(=O)N1CCC[C@H](N1)C(=O)OCC(C)(C)C2 (stereo partly shown) [Example 271]	< 5000	> 10000	100 to 1000	10 to 100	100 to 1000	10 to 100	100 to 1000	10 to 100	10 to 100	< 10	100 to 1000	100 to 1000	100 to 1000	< 10
CCn1c(-c2cccnc2[C@H](C)OC)c2c3cc(ccc31)-c1cc(O)cc(c1)C[C@H](NC(=O)[C@H](C(C)C)N(C)C(=O)CN(C)C(=O)[C@H]1CN1CCCN1CCOC1=O)C(=O)N1CCC[C@H](N1)C(=O)OCC(C)(C)C2 (stereo partly shown) [Example 272]	< 5000	1000 to 10000	100 to 1000	10 to 100	10 to 100	10 to 100	100 to 1000	10 to 100	10 to 100	< 10	100 to 1000	100 to 1000	10 to 100	< 10
CCn1c(-c2cccnc2[C@H](C)OC)c2c3cc(ccc31)-c1cc(O)cc(c1)C[C@H](NC(=O)[C@H](C(C)C)N(C)C(=O)CN(C)C(=O)[C@H]1CN1C1COC1)C(=O)N1CCC[C@H](N1)C(=O)OCC(C)(C)C2 (stereo partly shown) [Example 275]	< 5000	1000 to 10000	100 to 1000	10 to 100	100 to 1000	10 to 100	100 to 1000	10 to 100	100 to 1000	10 to 100	100 to 1000	100 to 1000	100 to 1000	10 to 100
CCn1c(-c2cccnc2[C@H](C)OC)c2c3cc(ccc31)-c1cc(O)cc(c1)C[C@H](NC(=O)[C@H](C(C)C)N(C)C(=O)CN(C)C(=O)[C@@H]1CN1CC1COC1)C(=O)N1CCC[C@H](N1)C(=O)OCC(C)(C)C2 (stereo partly shown) [Example 278]	< 5000	1000 to 10000	10 to 100	10 to 100	10 to 100	10 to 100	100 to 1000	10 to 100	10 to 100	< 10	100 to 1000	100 to 1000	10 to 100	10 to 100
CCn1c(-c2cccnc2[C@H](C)OC)c2c3cc(ccc31)-c1cc(O)cc(c1)C[C@H](NC(=O)[C@H](C(C)C)N(C)C(=O)CN(C)C(=O)[C@@H]1N[C@@H]1C1COC1)C(=O)N1CCC[C@H](N1)C(=O)OCC(C)(C)C2 [Example 281]	< 5000	100 to 1000	10 to 100	< 10	10 to 100	10 to 100	10 to 100	< 10	10 to 100	< 10	10 to 100	100 to 1000	10 to 100	< 10
CCn1c(-c2cccnc2[C@H](C)OC)c2c3cc(ccc31)-c1cc(O)cc(c1)C[C@H](NC(=O)[C@H](C(C)C)N(C)C(=O)CN(C)C(=O)[C@H]1N[C@H]1C1COC1)C(=O)N1CCC[C@H](N1)C(=O)OCC(C)(C)C2 [Example 282]	< 5000	1000 to 10000	10 to 100	10 to 100	10 to 100	< 10	10 to 100	10 to 100	10 to 100	10 to 100	100 to 1000	100 to 1000	10 to 100	10 to 100
